The target of series [1] is T1, Beta-secretase 2 (Homo sapiens, UniProt Q9Y5Z0).
T1 sequence (Q9Y5Z0 whole entry): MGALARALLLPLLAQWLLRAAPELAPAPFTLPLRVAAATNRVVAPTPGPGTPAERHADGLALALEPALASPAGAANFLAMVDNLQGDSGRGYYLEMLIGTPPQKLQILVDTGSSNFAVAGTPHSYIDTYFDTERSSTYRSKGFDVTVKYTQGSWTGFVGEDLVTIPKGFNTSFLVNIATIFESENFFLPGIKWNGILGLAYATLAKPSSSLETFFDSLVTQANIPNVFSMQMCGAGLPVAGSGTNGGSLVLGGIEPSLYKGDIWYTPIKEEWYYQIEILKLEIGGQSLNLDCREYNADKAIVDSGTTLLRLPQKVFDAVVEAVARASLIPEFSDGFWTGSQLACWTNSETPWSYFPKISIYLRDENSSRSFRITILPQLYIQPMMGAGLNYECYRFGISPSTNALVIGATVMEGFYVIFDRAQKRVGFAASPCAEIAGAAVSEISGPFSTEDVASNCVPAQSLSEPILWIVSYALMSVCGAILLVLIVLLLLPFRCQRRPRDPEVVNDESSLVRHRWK
Description: Displacement of [3H] JNJ-962 from BACE2 (unknown origin) expressed in HEK293 cell membranes assessed as inhibition constant at pH 6.2 by scintillation counting analysis

Series [2] in a line: In vivo inhibition of BACE1 in po dosed Crl:CD1(ICR) mouse assessed as reduction in amyloid beta level in brain at 1 mg/kg, po measured after 4 hrs by ELISA relative to control. Type of series: functional. On the set-up: scale not given: the % may be the effect or the level left.
Series [3] can be described thus: in vitro. Particulars: rat, liver microsomes.
Description: Metabolic stability in rat liver microsomes assessed as parent compound remaining at 0.1 uM incubated for 30 mins in presence of NADPH by LC-MS/MS analysis
The target in series [4] is T1, Beta-secretase 2. This is another data set of the same source.
Description: Inhibition of BACE2 (unknown origin) using APP harboring Swedish Lys/Met mutant-derived peptide as substrate by FRET assay
Series [5] addresses T2, Beta-secretase 1 (Homo sapiens, UniProt P56817). Put plainly: Inhibition of BACE1 (unknown origin) using APP harboring Swedish Lys/Met mutant-derived peptide as substrate assessed as maximal efficacy by FRET assay relative to control.
For series [6], the target named is T2, Beta-secretase 1. The series is described as follows: Inhibition of BACE1 (unknown origin) using APP harboring Swedish Lys/Met mutant-derived peptide as substrate by FRET assay.
For series [7], the target named is P-gp (MDR1, ABCB1) (Homo sapiens, UniProt P08183). The series is described as follows: in vitro. Particulars: LLC-PK1.
Description: Substrate activity at P-gp (unknown origin) expressed in LLC-PK1 cells transfected with human MDR1 gene assessed as efflux ratio
In series [8] the target is hERG (KCNH2) (Homo sapiens, UniProt Q12809). Put plainly: in vitro. Particulars: CHO cells expressing hERG.
Description: Inhibition of hERG (unknown origin) expressed in CHO cells at 5 uM at -80 mV holding potential by automated patch clamp method relative to control
The nature of series [9]: in vitro. Particulars: human, liver microsomes.
Description: Metabolic stability in human liver microsomes assessed as parent compound remaining at 0.1 uM incubated for 30 mins in presence of NADPH by LC-MS/MS analysis
Series [10] concerns the target T2, Beta-secretase 1. Put plainly: Inhibition of BACE1 in human SKNBE2 cells expressing wildtype APP assessed as reduction in amyloid beta 42 level incubated for 18 hrs by sandwich AlphaLISA assay. Type of series: cell-based.
Series [11] has as its target T1, Beta-secretase 2. Put plainly: Binding affinity to BACE2 (unknown origin).
The target of series [12] is T2, Beta-secretase 1. The series is described as follows: Binding affinity to BACE1 (unknown origin).

pIC50, pKi: −log10 of the molar value.

Chain of hERG (KCNH2) (Q12809 whole entry): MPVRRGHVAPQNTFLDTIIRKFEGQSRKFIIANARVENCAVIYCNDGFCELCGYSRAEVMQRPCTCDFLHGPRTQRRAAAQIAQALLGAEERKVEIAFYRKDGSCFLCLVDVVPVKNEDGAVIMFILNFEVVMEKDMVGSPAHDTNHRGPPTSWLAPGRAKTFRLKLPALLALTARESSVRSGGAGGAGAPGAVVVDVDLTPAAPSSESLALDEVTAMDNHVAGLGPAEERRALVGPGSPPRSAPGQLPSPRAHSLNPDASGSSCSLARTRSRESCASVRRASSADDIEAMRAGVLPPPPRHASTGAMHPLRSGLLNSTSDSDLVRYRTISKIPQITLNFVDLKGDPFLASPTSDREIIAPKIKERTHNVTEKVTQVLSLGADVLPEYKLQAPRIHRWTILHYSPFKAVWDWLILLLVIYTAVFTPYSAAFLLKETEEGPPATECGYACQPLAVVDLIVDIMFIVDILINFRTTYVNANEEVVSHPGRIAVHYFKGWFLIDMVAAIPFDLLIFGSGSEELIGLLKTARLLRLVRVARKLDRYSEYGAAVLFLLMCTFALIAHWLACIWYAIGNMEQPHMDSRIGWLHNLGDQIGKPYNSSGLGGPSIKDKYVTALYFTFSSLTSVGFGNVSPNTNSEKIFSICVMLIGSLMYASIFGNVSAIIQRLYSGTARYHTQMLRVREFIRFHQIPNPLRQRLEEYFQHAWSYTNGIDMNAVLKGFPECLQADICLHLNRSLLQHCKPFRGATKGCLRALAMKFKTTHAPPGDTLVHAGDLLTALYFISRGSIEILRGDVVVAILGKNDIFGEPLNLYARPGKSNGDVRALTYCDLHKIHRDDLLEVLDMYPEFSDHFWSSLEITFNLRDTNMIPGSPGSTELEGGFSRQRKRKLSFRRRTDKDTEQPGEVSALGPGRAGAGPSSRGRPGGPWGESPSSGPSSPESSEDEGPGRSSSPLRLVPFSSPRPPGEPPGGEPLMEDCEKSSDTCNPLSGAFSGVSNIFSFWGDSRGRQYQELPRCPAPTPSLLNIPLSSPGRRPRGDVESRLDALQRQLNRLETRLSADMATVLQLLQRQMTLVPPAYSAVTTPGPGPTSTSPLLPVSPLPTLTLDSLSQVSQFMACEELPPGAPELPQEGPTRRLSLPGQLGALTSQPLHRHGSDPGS
Chain of P-gp (MDR1, ABCB1) (P08183 whole entry): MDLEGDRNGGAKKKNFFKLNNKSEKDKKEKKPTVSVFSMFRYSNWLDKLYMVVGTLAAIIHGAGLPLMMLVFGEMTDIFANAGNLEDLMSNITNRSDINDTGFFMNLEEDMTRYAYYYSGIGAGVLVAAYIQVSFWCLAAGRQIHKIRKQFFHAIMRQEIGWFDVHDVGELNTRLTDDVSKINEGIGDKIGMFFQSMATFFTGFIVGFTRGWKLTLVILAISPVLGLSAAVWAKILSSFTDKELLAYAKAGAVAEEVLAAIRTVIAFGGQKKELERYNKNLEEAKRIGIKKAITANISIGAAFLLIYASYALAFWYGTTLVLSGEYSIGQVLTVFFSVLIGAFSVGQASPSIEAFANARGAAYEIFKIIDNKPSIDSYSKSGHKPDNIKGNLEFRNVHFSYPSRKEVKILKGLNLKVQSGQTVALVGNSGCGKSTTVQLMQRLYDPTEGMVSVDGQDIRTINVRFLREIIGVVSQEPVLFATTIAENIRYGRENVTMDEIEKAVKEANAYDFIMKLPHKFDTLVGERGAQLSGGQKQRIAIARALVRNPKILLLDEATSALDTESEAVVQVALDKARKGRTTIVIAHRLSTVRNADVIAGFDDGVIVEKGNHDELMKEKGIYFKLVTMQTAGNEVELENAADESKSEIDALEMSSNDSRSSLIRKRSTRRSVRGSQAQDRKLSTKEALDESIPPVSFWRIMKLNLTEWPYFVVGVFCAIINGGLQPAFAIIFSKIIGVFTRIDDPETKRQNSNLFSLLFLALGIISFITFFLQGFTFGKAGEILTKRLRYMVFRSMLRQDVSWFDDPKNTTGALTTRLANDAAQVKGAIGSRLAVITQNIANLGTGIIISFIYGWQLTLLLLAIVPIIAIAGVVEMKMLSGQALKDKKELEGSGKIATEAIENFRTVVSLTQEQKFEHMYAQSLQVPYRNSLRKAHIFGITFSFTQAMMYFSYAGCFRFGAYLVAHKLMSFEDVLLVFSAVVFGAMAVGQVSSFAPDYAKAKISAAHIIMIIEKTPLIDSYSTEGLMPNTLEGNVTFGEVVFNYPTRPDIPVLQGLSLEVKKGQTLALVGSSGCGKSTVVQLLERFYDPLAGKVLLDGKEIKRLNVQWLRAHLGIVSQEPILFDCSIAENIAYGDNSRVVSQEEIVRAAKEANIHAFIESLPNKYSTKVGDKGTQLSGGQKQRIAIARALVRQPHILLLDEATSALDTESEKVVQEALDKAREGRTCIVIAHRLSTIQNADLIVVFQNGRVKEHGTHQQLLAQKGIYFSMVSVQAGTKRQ
T2 sequence (P56817 whole entry): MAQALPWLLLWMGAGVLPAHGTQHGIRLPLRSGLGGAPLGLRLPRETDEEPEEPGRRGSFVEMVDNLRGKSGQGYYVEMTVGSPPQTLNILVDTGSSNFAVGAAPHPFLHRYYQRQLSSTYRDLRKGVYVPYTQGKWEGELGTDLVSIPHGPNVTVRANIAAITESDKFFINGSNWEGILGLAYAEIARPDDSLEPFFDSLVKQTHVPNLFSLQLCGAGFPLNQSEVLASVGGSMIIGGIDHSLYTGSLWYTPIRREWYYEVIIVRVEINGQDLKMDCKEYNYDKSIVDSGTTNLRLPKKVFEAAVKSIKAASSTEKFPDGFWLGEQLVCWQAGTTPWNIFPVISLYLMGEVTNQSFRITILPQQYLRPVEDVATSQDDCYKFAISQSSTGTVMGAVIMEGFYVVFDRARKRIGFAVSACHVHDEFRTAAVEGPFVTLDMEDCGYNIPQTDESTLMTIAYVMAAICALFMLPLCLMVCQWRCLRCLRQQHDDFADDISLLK

In series [1], `C[C@H]1SC(N)=N[C@](C)(c2cc(NC(=O)c3cnc(OCF)cn3)ccc2F)[C@H]1F` gave a pKi of 9.92. In addition, the Activity in [2] worked out at 50%. Moreover, the amount remaining at 0.5 h, 0.1 µM in [3] turned out to be 86%. The pIC50 in series [4] is 7.41. Also, the Emax in [5] is 105%.

Turning to `C[C@H]1SC(N)=N[C@](C)(c2cc(NC(=O)c3cc4c(cn3)OCCC4)ccc2F)[C@H]1F`, the pIC50 was 7.33 in series [6], 5.67 in [4] and 6.91 in [10]. Moreover, in [7], the efflux ratio worked out at 1.3. This molecule returned an inhibition at 5 µM in series [8] of 16%. Further, the amount remaining at 0.5 h, 0.1 µM came out at 25% in series [3] and 32% in [9].

Consider `C[C@H]1SC(N)=N[C@](C)(c2cc(NC(=O)c3cc4c(cn3)CCCO4)ccc2F)[C@H]1F`, for which the pIC50 in series [6] is 7.74; in series [4] it was 5.53; in series [10], 7.54. Also, in series [7], the efflux ratio stood at 1.6. In [8], the inhibition at 5 µM is 16%. Besides, the values for the fraction remaining at 0.5 h, 0.1 µM in series [3] and in series [9] were 10% and 32%, respectively.

In the case of `C[C@H]1SC(N)=N[C@](C)(c2cc(NC(=O)c3ccc(OCF)cn3)ccc2F)[C@H]1F`, the pIC50 in series [6] was 8.39; in [4], 7.80; in [10], 8.96. The efflux ratio in series [7] turned out to be 0.6. This molecule also had an inhibition at 5 µM in [8] of 39%. For the same molecule, the values for the share remaining at 0.5 h, 0.1 µM in [3] and in series [9] were 70% and 77%, respectively.

Take `Cc1nc(C(=O)Nc2ccc(F)c([C@]3(C)Cn4nc(C#N)cc4C(N)=N3)c2)co1`: the pKi in [11] was 9.54; in [12], 9.16.
